{"source": "ChEMBL document CHEMBL5244220", "about": "“Methyl-containing pharmaceuticals: Methylation in drug design” (Bioorg Med Chem Lett, 2018)", "key": {"[1]": {"assay": "Oral bioavailability in rat", "type": "ADME, organism-based", "settings": "in vivo"}, "[2]": {"assay": "Aqueous solubility of compound", "type": "physicochemical"}, "[3]": {"assay": "Apparent permeability across apical to basolateral side in human Caco-2 cells", "type": "ADME, cell-based"}, "[4]": {"assay": "Terminal half life in po dosed dog", "type": "ADME, organism-based, Canis lupus familiaris", "settings": "in vivo, read-out: beta t1/2 (converted)"}, "[5]": {"assay": "Terminal half life in po dosed human", "type": "ADME, organism-based", "settings": "in vivo, read-out: beta t1/2 (converted)"}, "[6]": {"assay": "Terminal half life in po dosed mouse", "type": "ADME, organism-based", "settings": "in vivo, read-out: beta t1/2 (converted)"}, "[7]": {"assay": "Terminal half life in po dosed rat", "type": "ADME, organism-based", "settings": "in vivo, read-out: beta t1/2 (converted)"}, "[8]": {"target": "GABA-A receptor; anion channel", "assay": "Positive allosteric modulator activity at human GABAA receptor measured by [35S]TBPS based functional assay", "type": "protein-complex assay"}, "[9]": {"assay": "Oral bioavailability in Sprague-Dawley rat at 2 mg/kg", "type": "ADME, organism-based", "settings": "in vivo"}, "[10]": {"target": "T1, Orexin/Hypocretin receptor type 1 (Homo sapiens, UniProt O43613)", "T1 sequence (O43613 whole entry)": "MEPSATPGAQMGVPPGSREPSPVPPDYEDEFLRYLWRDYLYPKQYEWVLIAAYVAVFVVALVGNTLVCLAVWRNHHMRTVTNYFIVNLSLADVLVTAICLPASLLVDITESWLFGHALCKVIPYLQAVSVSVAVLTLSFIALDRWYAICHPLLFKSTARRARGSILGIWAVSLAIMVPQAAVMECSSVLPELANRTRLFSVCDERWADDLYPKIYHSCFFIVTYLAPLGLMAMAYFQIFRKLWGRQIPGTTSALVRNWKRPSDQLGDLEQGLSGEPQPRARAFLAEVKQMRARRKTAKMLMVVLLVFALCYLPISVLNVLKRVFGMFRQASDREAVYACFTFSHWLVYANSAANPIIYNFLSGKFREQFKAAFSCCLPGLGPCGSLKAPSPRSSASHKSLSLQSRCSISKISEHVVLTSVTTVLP", "assay": "Antagonist activity at human OX1R by FLIPR assay"}, "Aspergillus fumigatus": {"system": "Aspergillus fumigatus", "assay": "Antifungal activity against Aspergillus fumigatus assessed as inhibition of fungal growth", "type": "functional"}, "Orexin receptor type 2": {"target": "T2, Orexin receptor type 2 (Homo sapiens, UniProt O43614)", "T2 sequence (O43614 whole entry)": "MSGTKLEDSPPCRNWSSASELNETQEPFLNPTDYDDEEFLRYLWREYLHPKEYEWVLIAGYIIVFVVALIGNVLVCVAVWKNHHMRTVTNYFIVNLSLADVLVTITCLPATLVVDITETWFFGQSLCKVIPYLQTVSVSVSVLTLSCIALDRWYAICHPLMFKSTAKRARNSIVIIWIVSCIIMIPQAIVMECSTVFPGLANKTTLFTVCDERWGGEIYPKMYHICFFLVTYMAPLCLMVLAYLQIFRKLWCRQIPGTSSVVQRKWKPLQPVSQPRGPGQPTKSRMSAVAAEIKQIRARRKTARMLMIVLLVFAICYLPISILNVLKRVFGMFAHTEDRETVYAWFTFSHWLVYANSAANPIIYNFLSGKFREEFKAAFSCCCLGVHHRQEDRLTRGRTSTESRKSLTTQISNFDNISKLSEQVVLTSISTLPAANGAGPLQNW", "assay": "Antagonist activity at human OX2R by FLIPR assay"}, "BCR/ABL1": {"target": "BCR/ABL1 (Mus musculus, UniProt P00520)", "sequence (P00520 whole entry)": "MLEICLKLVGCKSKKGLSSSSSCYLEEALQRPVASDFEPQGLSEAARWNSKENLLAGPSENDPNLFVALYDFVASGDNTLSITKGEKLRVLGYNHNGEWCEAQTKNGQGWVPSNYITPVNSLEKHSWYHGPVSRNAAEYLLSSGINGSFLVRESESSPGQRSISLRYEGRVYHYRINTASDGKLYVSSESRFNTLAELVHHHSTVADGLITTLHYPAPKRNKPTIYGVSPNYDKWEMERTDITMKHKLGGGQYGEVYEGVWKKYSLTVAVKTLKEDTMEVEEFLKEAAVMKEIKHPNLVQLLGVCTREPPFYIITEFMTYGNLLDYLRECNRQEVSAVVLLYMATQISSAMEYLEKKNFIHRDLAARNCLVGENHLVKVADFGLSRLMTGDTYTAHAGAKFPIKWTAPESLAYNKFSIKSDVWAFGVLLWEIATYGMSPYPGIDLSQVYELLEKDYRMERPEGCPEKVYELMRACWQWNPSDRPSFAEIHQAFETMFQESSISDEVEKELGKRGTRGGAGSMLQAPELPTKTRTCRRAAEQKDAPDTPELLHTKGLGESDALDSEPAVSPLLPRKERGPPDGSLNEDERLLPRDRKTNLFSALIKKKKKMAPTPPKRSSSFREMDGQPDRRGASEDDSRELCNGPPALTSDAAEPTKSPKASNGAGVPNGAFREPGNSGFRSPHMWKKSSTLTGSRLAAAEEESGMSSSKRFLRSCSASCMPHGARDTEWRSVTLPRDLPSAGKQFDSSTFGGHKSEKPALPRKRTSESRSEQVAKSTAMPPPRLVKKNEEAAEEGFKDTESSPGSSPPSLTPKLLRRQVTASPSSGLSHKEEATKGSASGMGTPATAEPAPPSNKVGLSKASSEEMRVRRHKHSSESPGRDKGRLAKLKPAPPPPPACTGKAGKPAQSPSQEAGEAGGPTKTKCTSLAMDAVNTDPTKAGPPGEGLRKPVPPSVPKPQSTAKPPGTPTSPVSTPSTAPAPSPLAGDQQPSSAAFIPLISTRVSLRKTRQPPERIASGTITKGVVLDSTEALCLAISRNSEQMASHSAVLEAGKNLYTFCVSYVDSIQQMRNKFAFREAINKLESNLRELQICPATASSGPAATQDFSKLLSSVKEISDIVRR", "sequence (Q6PAJ1 whole entry, further chain)": "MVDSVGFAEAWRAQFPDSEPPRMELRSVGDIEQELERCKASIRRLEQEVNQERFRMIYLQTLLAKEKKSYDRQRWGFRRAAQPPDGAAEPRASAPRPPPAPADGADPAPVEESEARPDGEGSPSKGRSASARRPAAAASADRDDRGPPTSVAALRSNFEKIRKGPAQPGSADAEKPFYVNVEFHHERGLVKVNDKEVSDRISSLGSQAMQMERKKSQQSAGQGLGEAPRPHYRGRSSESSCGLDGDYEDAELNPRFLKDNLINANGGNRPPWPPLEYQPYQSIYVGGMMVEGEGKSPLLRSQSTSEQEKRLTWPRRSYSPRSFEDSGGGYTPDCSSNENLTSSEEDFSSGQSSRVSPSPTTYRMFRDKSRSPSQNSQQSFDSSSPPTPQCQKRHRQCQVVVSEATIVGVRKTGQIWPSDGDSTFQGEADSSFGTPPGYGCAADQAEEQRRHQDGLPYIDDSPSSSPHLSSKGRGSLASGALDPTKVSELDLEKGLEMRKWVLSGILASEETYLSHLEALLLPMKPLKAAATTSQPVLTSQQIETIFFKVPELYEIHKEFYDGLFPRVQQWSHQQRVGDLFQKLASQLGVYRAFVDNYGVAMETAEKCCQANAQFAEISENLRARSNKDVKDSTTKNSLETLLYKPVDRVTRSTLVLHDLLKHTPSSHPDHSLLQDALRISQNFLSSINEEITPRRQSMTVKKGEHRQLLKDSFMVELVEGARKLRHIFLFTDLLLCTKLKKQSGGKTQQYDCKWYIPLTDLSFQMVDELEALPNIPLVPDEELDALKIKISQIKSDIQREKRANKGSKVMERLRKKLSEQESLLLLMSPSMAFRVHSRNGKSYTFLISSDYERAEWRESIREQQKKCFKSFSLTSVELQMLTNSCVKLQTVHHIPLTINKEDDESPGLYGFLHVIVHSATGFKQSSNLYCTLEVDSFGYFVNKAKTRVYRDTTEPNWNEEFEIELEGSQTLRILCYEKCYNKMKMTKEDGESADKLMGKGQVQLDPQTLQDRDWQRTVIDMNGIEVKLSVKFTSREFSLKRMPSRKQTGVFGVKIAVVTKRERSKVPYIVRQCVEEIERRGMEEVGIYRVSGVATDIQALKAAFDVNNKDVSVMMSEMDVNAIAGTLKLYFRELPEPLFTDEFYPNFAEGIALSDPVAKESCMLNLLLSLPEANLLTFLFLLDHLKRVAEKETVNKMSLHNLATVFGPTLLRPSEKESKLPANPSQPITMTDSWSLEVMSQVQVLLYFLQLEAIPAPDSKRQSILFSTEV", "assay": "Inhibition of Bcr-Abl phosphorylation in BALB/c mouse 3T3 by Western blot analysis", "type": "cell-based"}, "[11]": {"target": "cAMP-dependent protein kinase (PKA) (Homo sapiens, UniProt P22694+P17612+P22612)", "assay": "Inhibition of PKA (unknown origin)", "type": "protein assay"}, "[12]": {"target": "Platelet-derived growth factor receptor beta (Mus musculus, UniProt P05622)", "sequence (P05622 whole entry)": "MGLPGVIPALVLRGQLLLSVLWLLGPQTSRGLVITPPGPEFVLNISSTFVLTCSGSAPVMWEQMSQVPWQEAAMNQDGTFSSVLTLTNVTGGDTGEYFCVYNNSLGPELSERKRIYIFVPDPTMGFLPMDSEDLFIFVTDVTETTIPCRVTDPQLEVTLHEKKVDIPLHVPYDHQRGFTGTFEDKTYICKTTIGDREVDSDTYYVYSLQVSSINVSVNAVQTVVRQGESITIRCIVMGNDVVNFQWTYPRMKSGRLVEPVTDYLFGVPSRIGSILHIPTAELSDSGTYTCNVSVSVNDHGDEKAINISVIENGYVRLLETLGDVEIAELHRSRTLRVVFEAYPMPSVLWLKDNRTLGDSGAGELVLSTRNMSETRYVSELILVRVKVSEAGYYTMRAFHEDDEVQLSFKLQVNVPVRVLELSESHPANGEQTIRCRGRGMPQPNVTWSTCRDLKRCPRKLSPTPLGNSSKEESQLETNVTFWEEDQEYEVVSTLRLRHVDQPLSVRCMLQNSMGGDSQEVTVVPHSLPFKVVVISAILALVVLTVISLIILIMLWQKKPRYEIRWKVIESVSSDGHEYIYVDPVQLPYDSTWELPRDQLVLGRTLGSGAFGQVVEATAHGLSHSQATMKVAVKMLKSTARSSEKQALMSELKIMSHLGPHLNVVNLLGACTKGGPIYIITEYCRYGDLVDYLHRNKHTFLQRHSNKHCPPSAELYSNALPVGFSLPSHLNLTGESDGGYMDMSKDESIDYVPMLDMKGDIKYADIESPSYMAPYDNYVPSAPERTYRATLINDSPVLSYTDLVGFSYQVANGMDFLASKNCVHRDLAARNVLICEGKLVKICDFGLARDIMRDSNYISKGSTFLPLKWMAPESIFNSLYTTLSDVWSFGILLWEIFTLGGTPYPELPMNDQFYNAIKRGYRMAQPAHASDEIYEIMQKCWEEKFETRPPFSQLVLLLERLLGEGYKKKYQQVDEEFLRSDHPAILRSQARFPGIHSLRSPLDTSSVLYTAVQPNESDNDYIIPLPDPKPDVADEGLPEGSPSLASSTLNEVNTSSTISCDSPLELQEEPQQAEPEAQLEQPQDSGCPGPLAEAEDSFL", "assay": "Inhibition of PDGFR phosphorylation in BALB/c mouse 3T3 by Western blot analysis", "type": "cell-based"}, "Protein kinase C (PKC)": {"target": "Protein kinase C (PKC)", "assay": "Inhibition of PKC (unknown origin)", "type": "protein assay, Homo sapiens"}, "clinical": {"assay": "clinical", "settings": "human, plasma, po, 100 mg"}, "[13]": {"assay": "Half life in Sprague-Dawley rat plasma at 20 mg/kg, po", "type": "ADME, organism-based"}, "[14]": {"assay": "Half life in rat plasma", "type": "ADME, cell-free"}, "[15]": {"assay": "Oral bioavailability in Beagle dog at 0.5 mg/kg", "type": "ADME, organism-based, Canis lupus familiaris", "settings": "in vivo"}, "[16]": {"target": "T3, 3-hydroxy-3-methylglutaryl-coenzyme A reductase (Rattus norvegicus, UniProt P51639)", "T3 sequence (P51639 whole entry)": "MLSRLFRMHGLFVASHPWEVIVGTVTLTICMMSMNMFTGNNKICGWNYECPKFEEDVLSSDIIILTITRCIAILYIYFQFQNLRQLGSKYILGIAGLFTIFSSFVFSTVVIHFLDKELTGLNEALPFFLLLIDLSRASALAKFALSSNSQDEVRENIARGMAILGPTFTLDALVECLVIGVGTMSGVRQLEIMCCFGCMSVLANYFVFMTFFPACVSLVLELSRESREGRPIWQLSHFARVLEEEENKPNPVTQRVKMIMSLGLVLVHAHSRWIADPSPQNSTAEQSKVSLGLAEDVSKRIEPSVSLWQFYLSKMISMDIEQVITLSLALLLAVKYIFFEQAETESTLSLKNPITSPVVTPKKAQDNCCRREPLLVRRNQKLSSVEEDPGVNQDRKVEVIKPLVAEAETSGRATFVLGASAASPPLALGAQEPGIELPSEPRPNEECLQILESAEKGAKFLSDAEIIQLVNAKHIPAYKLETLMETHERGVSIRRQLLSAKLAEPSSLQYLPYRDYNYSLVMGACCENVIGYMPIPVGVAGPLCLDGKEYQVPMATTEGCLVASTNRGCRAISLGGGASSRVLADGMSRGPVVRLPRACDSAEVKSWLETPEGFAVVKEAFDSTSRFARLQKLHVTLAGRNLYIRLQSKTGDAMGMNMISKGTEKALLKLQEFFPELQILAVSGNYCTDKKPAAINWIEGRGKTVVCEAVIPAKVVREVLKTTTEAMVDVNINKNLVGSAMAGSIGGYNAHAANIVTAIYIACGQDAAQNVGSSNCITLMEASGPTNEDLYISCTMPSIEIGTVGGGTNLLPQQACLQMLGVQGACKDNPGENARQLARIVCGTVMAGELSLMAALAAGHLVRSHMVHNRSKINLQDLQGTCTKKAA", "assay": "Inhibition of rat liver HMG-CoA reductase pre incubated for 5 mins followed by substrate addition using NADPH as substrate by scintillation counter analysis", "type": "tissue-based"}}}
{"smiles": "CC(c1ccncc1)n1[nH]c(=O)c2[nH]c3cc(Cl)ccc3c(=O)c2c1=O", "note": "(configuration not stated)", "values": [{"measurement": "bioavailability", "setting": "[1]", "value": 30, "unit": "%"}, {"measurement": "solubility", "setting": "[2]", "value": "> 290", "unit": "µg/mL"}]}
{"smiles": "O=c1[nH]n(Cc2ccncc2)c(=O)c2c(=O)c3ccc(Cl)cc3[nH]c12", "values": [{"measurement": "Papp A→B", "setting": "[3]", "value": 0.2, "unit": "×10⁻⁶ cm/s"}]}
{"smiles": "O=c1[nH]nc(CN2CCO[C@H](OCc3cc(C(F)(F)F)cc(C(F)(F)F)c3)[C@@H]2c2ccc(F)cc2)[nH]1", "values": [{"measurement": "half-life", "setting": "[4]", "value": 3, "unit": "h"}, {"measurement": "half-life", "setting": "[5]", "value": 9, "unit": "h"}, {"measurement": "half-life", "setting": "[6]", "value": 3, "unit": "h"}, {"measurement": "half-life", "setting": "[7]", "value": 3, "unit": "h"}]}
{"smiles": "CC(=O)[C@H]1CCC2C3CC[C@H]4C[C@](C)(O)CC[C@]4(C)C3CC[C@@]21C", "note": "(some centres not stated)", "values": [{"measurement": "IC50", "setting": "[8]", "value": 80, "unit": "nM"}]}
{"smiles": "Cc1ccc(-n2nccn2)c(C(=O)N2C[C@H](COc3ccc(F)cn3)CC[C@H]2C)c1", "values": [{"measurement": "bioavailability", "setting": "[9]", "value": "< 10", "unit": "%"}, {"measurement": "solubility", "setting": "[2]", "value": "< 24", "unit": "µM"}]}
{"smiles": "COc1cccc(OC)c1C(=O)N1CCCN(c2nc3ccc(Cl)cc3s2)CC1", "values": [{"measurement": "Ki", "setting": "[10]", "value": 150, "unit": "nM"}]}
{"smiles": "CC(=O)[C@H]1CCC2C3CC[C@H]4C[C@H](O)CC[C@]4(C)C3CC[C@@]21C", "note": "(some centres not stated)", "values": [{"measurement": "IC50", "setting": "[8]", "value": 51, "unit": "nM"}]}
{"smiles": "OC(Cn1cncn1)(Cn1cncn1)c1ccc(F)cc1", "values": [{"measurement": "MIC", "setting": "Aspergillus fumigatus", "value": "> 50", "unit": "µg/mL"}]}
{"smiles": "Cc1ccc(-n2nccn2)c(C(=O)N2CCC[C@@H](COc3ccc(F)cn3)C2)c1", "values": [{"measurement": "Ki", "setting": "Orexin receptor type 2", "value": 29, "unit": "nM"}, {"measurement": "Ki", "setting": "[10]", "value": 96, "unit": "nM"}]}
{"smiles": "CN1CCN(Cc2ccc(C(=O)Nc3cccc(Nc4nccc(-c5cccnc5)n4)c3)cc2)CC1", "values": [{"measurement": "IC50", "setting": "BCR/ABL1", "value": 100, "unit": "nM"}, {"measurement": "IC50", "setting": "[11]", "value": "> 100000", "unit": "nM"}, {"measurement": "IC50", "setting": "[12]", "value": 200, "unit": "nM"}, {"measurement": "IC50", "setting": "Protein kinase C (PKC)", "value": "> 100000", "unit": "nM"}]}
{"smiles": "Cc1ccc(-c2cc(C(F)(F)F)nn2-c2ccc(S(N)(=O)=O)cc2)cc1", "note": "[CELECOXIB]", "values": [{"measurement": "half-life", "setting": "clinical", "value": 12, "unit": "h"}, {"measurement": "half-life", "setting": "[13]", "value": 3.5, "unit": "h"}]}
{"smiles": "Cc1ccc(-c2ncc(Cl)cc2-c2ccc(S(C)(=O)=O)cc2)cn1", "note": "[ETORICOXIB]", "values": [{"measurement": "half-life", "setting": "[14]", "value": 2, "unit": "h"}]}
{"smiles": "Cc1ccc(-c2ncccn2)c(C(=O)N2C[C@H](COc3ccc(F)cn3)CC[C@H]2C)c1", "note": "[FILOREXANT]", "values": [{"measurement": "bioavailability", "setting": "[9]", "value": 25, "unit": "%"}, {"measurement": "solubility", "setting": "[2]", "value": 192, "unit": "µM"}, {"measurement": "bioavailability", "setting": "[15]", "value": 26, "unit": "%"}]}
{"smiles": "Cc1ccc(NC(=O)c2ccc(CN3CCN(C)CC3)cc2)cc1Nc1nccc(-c2cccnc2)n1", "note": "[IMATINIB]", "values": [{"measurement": "IC50", "setting": "[12]", "value": 50, "unit": "nM"}]}
{"smiles": "CC[C@H](C)C(=O)O[C@H]1C[C@@H](C)C=C2C=C[C@H](C)[C@H](CC[C@@H]3C[C@@H](O)CC(=O)O3)[C@H]21", "note": "[LOVASTATIN]", "values": [{"measurement": "IC50", "setting": "[16]", "value": 2.2, "unit": "nM"}]}
